Columns and labels:
Format in all cases: biochemical
PDK1 = molecular target: T1, PDK1 (Homo sapiens, UniProt O15530); test: PDK1 kinase assay (33P peptide phosphorylation); conditions: 0.01 mM ATP, 60 min at 30° C.; read-out: PDK-1 IC50
T1 sequence (O15530 1-556): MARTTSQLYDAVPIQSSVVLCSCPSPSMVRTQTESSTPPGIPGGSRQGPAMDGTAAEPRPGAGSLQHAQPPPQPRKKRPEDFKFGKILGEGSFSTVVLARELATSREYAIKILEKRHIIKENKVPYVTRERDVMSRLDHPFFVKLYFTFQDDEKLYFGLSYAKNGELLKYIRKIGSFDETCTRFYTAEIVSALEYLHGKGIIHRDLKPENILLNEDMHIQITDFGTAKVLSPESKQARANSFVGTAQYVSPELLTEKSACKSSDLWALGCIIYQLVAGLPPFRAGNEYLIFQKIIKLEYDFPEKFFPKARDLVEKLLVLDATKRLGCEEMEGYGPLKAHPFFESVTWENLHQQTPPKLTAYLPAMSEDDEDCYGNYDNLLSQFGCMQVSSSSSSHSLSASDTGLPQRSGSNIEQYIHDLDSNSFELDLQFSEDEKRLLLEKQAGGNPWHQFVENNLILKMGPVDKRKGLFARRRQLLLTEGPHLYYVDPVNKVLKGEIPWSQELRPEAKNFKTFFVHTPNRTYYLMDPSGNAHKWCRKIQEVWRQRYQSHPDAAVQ
Description: (§1) The assay mixture containing the inhibitor and PDK1 enzyme was mixed together in a microtiter plate in a final volume of 50 μl and incubated for 60 min at 30° C. The assay mixture contained 0.01 mM unlabeled ATP, 0.01 μCi/μl ^33P-γ-ATP, 0.075 mM peptide, 0.1 mg/ml BSA, 7.5 mM magnesium acetate, 0.05M Tris.HCl, pH 7.5, 0.5% 2-mercaptoethanol. The reaction was stopped by adding 50 μl of 50 mM phosphoric acid. 90 μl of the mixture were transferred to a pre-wetted 96-well Multiscreen MAPHNOB filtration plate (Millipore) and filtered on a vacuum manifold. The filter plate was washed with 3 successive additions of 200 μl 50 mM phosphoric acid and then with 100 μl methanol. The filtration plate was dried for 10 min at 65° C., scintillant added and phosphorylated peptide quantified in a scintillation counter (Trilux, PerkinElmer)

[1] = molecular target: CDK-2 enzyme, complexed with cyclin A (Homo sapiens, UniProt P24941); test: CDK2 kinase assay (33P peptide phosphorylation); conditions: 0.1 mM ATP, cyclin A complex
Description: as §1, with “and CDK-2 enzyme, complexed with cyclin A (0.4 U/ml)” for “and PDK1 enzyme”, “for 40” for “for 60”, “contained 0.1” for “contained 0.01”, “^33P-γ-ATP, 0.03” for “^33P-γ-ATP, 0.075”, “acetate, 50 mM HEPES-NaOH,” for “acetate, 0.05M Tris.HCl,”, “pH 7.5.” for “pH 7.5, 0.5% 2-mercaptoethanol.”

Akt1 = molecular target: T2, Akt1 (Homo sapiens, UniProt P31749); test: Akt1 kinase assay (Histone H1 substrate); conditions: 200 μM ATP, read-out: AKT-1 IC50
T2 construct: purchased Upstate
T2 sequence (P31749 whole entry, species assumed): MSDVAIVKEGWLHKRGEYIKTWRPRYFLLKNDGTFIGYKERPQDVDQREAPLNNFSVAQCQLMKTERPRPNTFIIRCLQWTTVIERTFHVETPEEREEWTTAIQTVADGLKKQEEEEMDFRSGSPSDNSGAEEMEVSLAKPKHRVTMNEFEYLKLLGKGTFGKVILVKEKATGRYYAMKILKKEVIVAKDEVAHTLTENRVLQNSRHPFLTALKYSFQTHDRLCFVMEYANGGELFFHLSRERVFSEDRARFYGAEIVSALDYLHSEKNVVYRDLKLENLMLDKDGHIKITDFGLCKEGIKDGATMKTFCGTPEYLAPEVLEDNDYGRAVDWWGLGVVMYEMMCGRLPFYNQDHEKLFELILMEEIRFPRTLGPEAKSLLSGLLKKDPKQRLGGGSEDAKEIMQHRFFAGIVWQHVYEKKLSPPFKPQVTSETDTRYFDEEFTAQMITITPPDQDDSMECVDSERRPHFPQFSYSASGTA
Description: (§2) Assays for the cyclin dependent kinase activity were carried out by monitoring the phosphorylation of a synthetic peptide, HATTPKKKRK. The assay mixture containing the inhibitor and CDK-2 enzyme, complexed with cyclin A (0.4 U/ml) was mixed together in a microtiter plate in a final volume of 50 μl and incubated for 40 min at 30° C. The assay mixture contained 0.1 mM unlabeled ATP, 0.01 μCi/μl ^33P-γ-ATP, 0.03 mM peptide, 0.1 mg/ml BSA, 7.5 mM magnesium acetate, 50 mM HEPES-NaOH, pH 7.5. The reaction was stopped by adding 50 μl of 50 mM phosphoric acid. 90 μl of the mixture were transferred to a pre-wetted 96-well Multiscreen MAPHNOB filtration plate (Millipore) and filtered on a vacuum manifold. The filter plate was washed with 3 successive additions of 200 μl 50 mM phosphoric acid and then with 100 μl methanol. The filtration plate was dried for 10 min at 65° C., scintillant added and phosphorylated peptide quantified in a scintillation counter (Trilux, PerkinElmer)
Protocol for the Akt assay is the same for CDK2 except that, 3 nM Akt1 (Upstate) was used with Histone H1 as substrate with a final ATP concentration of 200 μM. The reaction was incubated at 30° C. for 40 minutes.

GST-Chk1 enzyme = molecular target: T3, GST-Chk1 enzyme (Homo sapiens, UniProt O14757); test: Chk1 kinase assay (33P Chktide phosphorylation); conditions: 0.01 mM ATP, 40 minutes at 30° C.; read-out: CHK-1 IC50
T3 sequence (O14757 1-476): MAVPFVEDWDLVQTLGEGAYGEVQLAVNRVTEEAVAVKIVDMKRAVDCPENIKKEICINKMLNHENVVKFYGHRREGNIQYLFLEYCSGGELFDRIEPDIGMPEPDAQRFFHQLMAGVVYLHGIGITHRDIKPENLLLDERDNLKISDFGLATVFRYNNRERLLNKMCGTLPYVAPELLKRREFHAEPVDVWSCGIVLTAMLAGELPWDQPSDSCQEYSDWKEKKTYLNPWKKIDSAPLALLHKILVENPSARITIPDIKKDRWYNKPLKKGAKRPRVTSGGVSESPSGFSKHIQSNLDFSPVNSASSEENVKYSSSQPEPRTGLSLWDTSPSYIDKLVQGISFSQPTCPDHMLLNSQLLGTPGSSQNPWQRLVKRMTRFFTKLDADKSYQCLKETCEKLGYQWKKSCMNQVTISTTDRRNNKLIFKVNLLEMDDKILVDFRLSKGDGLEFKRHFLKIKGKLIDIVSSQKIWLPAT
Description: as §1, with “Chk1” for “PDK1”, “40 minutes” for “60 min”, “The assay mixture contained 0.01 mM unlabeled ATP, 0.01 μCi/μl ^33P-γ-ATP, 0.075 mM peptide, 0.1 mg/ml BSA, 7.5 mM magnesium acetate, 0.05M Tris.HCl, pH 7.5, 0.5% 2-mercaptoethanol.” left out, “was” for “were”, “multi-screen” for “Multiscreen”

PKA = molecular target: T4, PKA (Homo sapiens, UniProt P17612); test: PKA kinase assay (Kemptide substrate); conditions: 100 μM ATP
T4 construct: purchased Upstate
Description: as §2, with “The” for “Assays for the cyclin dependent kinase activity were carried out by monitoring the phosphorylation of a synthetic peptide, HATTPKKKRK. The”
The PKA assay was incubated at 30° C. for 30 minutes.

Cc1[nH]nc(-c2nc3ccccc3[nH]2)c1C(=O)NC1CCNCC1 [Example 1, 3-(1H-Benzoimidazol-2-yl)-5-methyl-1H-pyrazole-4-carboxylic Acid piperidin-4-ylamide]
IC50 (PDK1): 0.108 µM
IC50 [1]: 3.3 µM
IC50 (Akt1): 17.1 µM
IC50 (GST-Chk1 enzyme): 0.098 µM
IC50 (PKA): 7.26 µM

Cc1cc2nc(-c3n[nH]c(C)c3C(=O)NC3CCCNC3)[nH]c2cc1C (centres unmarked) [Example 2, 3-(5,6-Dimethyl-1H-benzoimidazol-2-yl)-5-methyl-1H-pyrazole-4-carboxylic Acid piperidin-3-ylamide]
IC50 (PDK1): 0.219 µM
IC50 [1]: 3.6 µM
IC50 (Akt1): 15.9 µM
IC50 (GST-Chk1 enzyme): 0.055 µM
IC50 (PKA): 7.84 µM

Cc1cc2nc(-c3n[nH]c(C)c3C(=O)NC3CCCN(C)C3)[nH]c2cc1C (centres unmarked) [Example 3, 3-(5,6-Dimethyl-1H benzoimidazole-2-yl)-5-methyl-1H-pyrazole-4-carboxylic Acid (1-methyl-piperidin-3-yl)-amide]
IC50 (PDK1): 0.44 µM
IC50 [1]: 30.9 µM
IC50 (Akt1): 41.3 µM
IC50 (GST-Chk1 enzyme): 0.077 µM
IC50 (PKA): 23.4 µM

Cc1[nH]nc(-c2nc3ccccc3[nH]2)c1C(=O)NCCCN [Example 4, 3-(1H-Benzoimidazol-2-yl)-5-methyl-1H-pyrazole-4-carboxylic Acid (3-amino-propyl)-amide]
IC50 (PDK1): 0.212 µM
IC50 [1]: 39.8 µM
IC50 (Akt1): > 50 µM
IC50 (GST-Chk1 enzyme): 0.031 µM
IC50 (PKA): 20.7 µM

Cc1[nH]nc(-c2nc3cc4ccccc4cc3[nH]2)c1C(=O)NC1CCNCC1 [Example 5, 5-Methyl-3-(1H-naphtho[2,3-d]imidazol-2-yl)-1H-pyrazole-4-carboxylic Acid piperidine-4-ylamide]
IC50 (PDK1): 0.058 µM
IC50 [1]: 4.54 µM
IC50 (Akt1): > 50 µM
IC50 (GST-Chk1 enzyme): 0.01 µM
IC50 (PKA): 3.24 µM

CCOC(=O)c1ccc2nc(-c3n[nH]c(C)c3C(=O)NC3CCNCC3)[nH]c2c1 [Example 6, 2-[5-Methyl-4-(piperidin-4-ylcarbamoyl)-1H-pyrazol-3-yl]-3H-benzimidazole-5-carboxylic Acid Ethyl Ester]
IC50 (PDK1): 0.433 µM
IC50 [1]: 39.5 µM
IC50 (Akt1): > 50 µM
IC50 (GST-Chk1 enzyme): 0.023 µM
IC50 (PKA): 40.2 µM

Cc1[nH]nc(-c2nc3ccc(C(=O)NC4CCCC4)cc3[nH]2)c1C(=O)NC1CCNCC1 [Example 7, 2-[5-Methyl-4-(piperidin-4-ylcarbamoyl)-1H-pyrazol-3-yl]-3H-benzimidazole-5-carboxylic Acid Cyclopentylamide]
IC50 (PDK1): 0.07 µM
IC50 [1]: 9.24 µM
IC50 (Akt1): 28.6 µM
IC50 (GST-Chk1 enzyme): 0.043 µM
IC50 (PKA): 12.6 µM

Cc1[nH]nc(-c2nc3ccc(-c4cc5ccccc5[nH]4)cc3[nH]2)c1C(=O)NC1CCNCC1 [Example 8, 3-[6-(1H-Indol-2-yl)-1H-benzimidazo-2-yl]-5-methyl-1H-pyrazole-4-carboxylic Acid piperidin-4-ylamide]
IC50 (PDK1): 0.019 µM
IC50 [1]: 2.8 µM
IC50 (Akt1): 5.84 µM
IC50 (GST-Chk1 enzyme): 0.012 µM
IC50 (PKA): 1.34 µM

Cc1[nH]nc(-c2nc3ccccc3[nH]2)c1C(=O)NCC1CCNCC1 [Example 9]
IC50 (PDK1): 0.129 µM
IC50 [1]: 47 µM
IC50 (Akt1): 11.1 µM
IC50 (GST-Chk1 enzyme): 0.208 µM
IC50 (PKA): 7.51 µM

Cc1[nH]nc(-c2nc3ccccc3[nH]2)c1C(=O)NC1CCN(Cc2ccccc2)CC1 [Example 10]
IC50 (PDK1): 0.435 µM
IC50 [1]: 44 µM
IC50 (Akt1): > 50 µM
IC50 (GST-Chk1 enzyme): 0.107 µM
IC50 (PKA): 29.1 µM

Cc1[nH]nc(-c2nc3cc4nc[nH]c4cc3[nH]2)c1C(=O)NC1CCNCC1 [Example 11]
IC50 (PDK1): 0.12 µM
IC50 [1]: 38.9 µM
IC50 (Akt1): > 50 µM
IC50 (GST-Chk1 enzyme): 0.088 µM
IC50 (PKA): 7.77 µM

Cc1[nH]nc(-c2nc3c(F)c(F)ccc3[nH]2)c1C(=O)NC1CCNCC1 [Example 12]
IC50 (PDK1): 0.485 µM
IC50 [1]: 10.5 µM
IC50 (Akt1): > 50 µM
IC50 (GST-Chk1 enzyme): 0.609 µM
IC50 (PKA): 20.9 µM

Cc1[nH]nc(-c2nc3cc(F)c(F)cc3[nH]2)c1C(=O)NC1CCNCC1 [Example 13]
IC50 (PDK1): 0.52 µM
IC50 [1]: 7.92 µM
IC50 (Akt1): > 50 µM
IC50 (GST-Chk1 enzyme): 0.508 µM
IC50 (PKA): 19.3 µM

Cc1[nH]nc(-c2nc3cc(Cl)c(Cl)cc3[nH]2)c1C(=O)NC1CCNCC1 [Example 15]
IC50 (PDK1): 0.123 µM
IC50 [1]: 4.77 µM
IC50 (Akt1): > 50 µM
IC50 (GST-Chk1 enzyme): 0.295 µM
IC50 (PKA): 8.85 µM

Cc1[nH]nc(-c2nc3ccccc3[nH]2)c1C(=O)NCCCCN [Example 16]
IC50 (PDK1): 0.249 µM
IC50 [1]: 43.5 µM
IC50 (Akt1): > 50 µM
IC50 (GST-Chk1 enzyme): 0.213 µM
IC50 (PKA): 20.7 µM

Cc1[nH]nc(-c2nc3cc(Cl)ccc3[nH]2)c1C(=O)NC1CCNCC1 [Example 17]
IC50 (PDK1): 0.189 µM
IC50 [1]: 10.6 µM
IC50 (Akt1): > 50 µM
IC50 (GST-Chk1 enzyme): 0.222 µM
IC50 (PKA): 9.03 µM

Cc1[nH]nc(-c2nc3cc(C#N)ccc3[nH]2)c1C(=O)NC1CCNCC1 [Example 18]
IC50 (PDK1): 0.311 µM
IC50 [1]: 12.2 µM
IC50 (Akt1): > 50 µM
IC50 (GST-Chk1 enzyme): 0.137 µM
IC50 (PKA): 22.6 µM

Cc1[nH]nc(-c2nc3ccccc3[nH]2)c1C(=O)NC1CCCNC1 (centres unmarked) [Example 19]
IC50 (PDK1): 0.05 µM
IC50 [1]: 4.47 µM
IC50 (Akt1): > 50 µM
IC50 (GST-Chk1 enzyme): 0.058 µM
IC50 (PKA): 10.9 µM

Cc1[nH]nc(-c2nc3ccc(C(=O)NC4CCc5ccccc54)cc3[nH]2)c1C(=O)NC1CCNCC1 (centres unmarked) [Example 48]
IC50 (PDK1): < 0.05 µM

Cc1[nH]nc(-c2nc3ccc(C(C)C)cc3[nH]2)c1C(=O)NC1CC2CCC(C1)N2C (centres unmarked) [Example 49]
IC50 (PDK1): < 0.5 µM
IC50 (GST-Chk1 enzyme): < 0.5 µM

Cc1[nH]nc(-c2nc3ccccc3[nH]2)c1C(=O)NCCN [Example 50]
IC50 (PDK1): < 0.5 µM
IC50 (GST-Chk1 enzyme): < 0.5 µM

Reference: patent US20090131470A1, “PYRAZOLE-SUBSTITUTED BENZIMIDAZOLE DERIVATIVES FOR USE IN THE TREATMENT OF CANCER AND AUTOIMMUNE DISORDERS” (priority 2005, published 2009)
